{"source": "patent US20030129134A1", "about": "“Method of monitoring neuroprotective treatment” (Pfizer Inc., priority 2001, published 2003)", "tested_on": "S-100b", "experiment": "Serum S-100b levels in patients with severe contusive-type head trauma treated by constant infusion", "format": "in vivo, human", "conditions": "constant infusion for 72 hours, serum samples out to 120 hours post-infusion, luminometric immunoassay", "from_the_text": "Levels of S-100b can be measured in a biological sample of a patient's blood or CSF using a commercially available immunoradiometric assay or luminometric immunoassay kit such as those available from Byk-Sangtec Diagnostica GmbH & Co. (Dietzenbach, Germany), which are based on a two-site immunoluminometric sandwich assay using the commercially available LIAISON® Sangtec® S-100 assay system. In this assay system, paramagnetic particles are coated with two anti-S100b monoclonal antibodies directed to different epitopes, and a secondary anti-S100b monoclonal antibody labeled with an isoluminol derivative is provided as detection antibody. The paramagnetic particles, assay buffer, and biological sample are first incubated and unbound material is removed by a wash cycle. […] Subsequently, starter reagents that activate the chemoluminscent reaction are added and the S-100b concentration is determined via the chemiluminescence reaction induced by the previously added reagents. The light signal is measured in relative light units (RLUs) and is directly proportional to the amount of S-100b protein in the sample. […]\nS-100b levels were measured in the serum of patients suffering from severe contusive-type head trauma. […] S-100b levels were determined using a commercially available luminometric immunoassay kit from Byk-Sangtec Diagnostica GmbH & Co. (Dietzenbach, Germany)."}
{"smiles": "C[C@@H]([C@@H](O)c1ccc(O)cc1)N1CCC(O)(c2ccccc2)CC1", "note": "[CP-101,606, (1S,2S)-1-(4-hydroxyphenyl)-2-(4-hydroxy-4-phenylpiperidin-1-yl)-1-propanol]", "values": [{"measurement": "S-100b levels in serum compared to the placebo group", "result": "significantly reduced"}]}
